Assay results from patent US12570656B2, “Purine compounds for treating disorders” (MARVEL BIOTECHNOLOGY, priority 2020, dated 2026).
“And” between values parts separate entries of the source, which are not always exact repeats. Equal values may be shown once. Read-outs that look alike come from different tables or passages of the source.

Tests used:
ADORA2A = ADORA2A (Homo sapiens, UniProt P29274); assay: GPCR screening, calcium flux (calcium mobilization), antagonist format; assay type: cell-based
Chain of ADORA2A (P29274 whole entry): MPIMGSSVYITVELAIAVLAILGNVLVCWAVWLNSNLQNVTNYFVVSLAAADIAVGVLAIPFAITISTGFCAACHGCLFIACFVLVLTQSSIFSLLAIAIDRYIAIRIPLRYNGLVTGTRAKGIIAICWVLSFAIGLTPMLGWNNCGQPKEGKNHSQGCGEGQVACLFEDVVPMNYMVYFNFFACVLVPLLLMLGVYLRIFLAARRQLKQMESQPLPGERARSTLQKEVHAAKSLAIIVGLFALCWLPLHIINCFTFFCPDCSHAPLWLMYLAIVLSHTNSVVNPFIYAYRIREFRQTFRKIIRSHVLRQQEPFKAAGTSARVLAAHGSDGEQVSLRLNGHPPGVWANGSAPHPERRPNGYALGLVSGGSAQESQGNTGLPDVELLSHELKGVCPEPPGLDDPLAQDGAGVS
Method: To ascertain whether the compounds are suitable A2aR antagonists, the compounds of formulae I, II, III, and IV were subjected to GPCR screening using A2aR as the target. The screening was done using the GPCR Screening and Profiling Services by Eurofins DiscoverX Corporation.
The compounds of formulae I, II, III, and IV were screened for GPCR activity using A2aR as the target.
Cell lines were expanded from freezer stocks according to standard procedures. Cells were seeded in a total volume of 20 μL into black-walled, clear-bottom, Poly-D-lysine coated 384-well microplates and incubated at 37° C. for the appropriate time prior to testing.
Assays were performed in 1× Dye Loading Buffer consisting of 1× Dye, 1× Additive A and 2.5 mM Probenecid in HBSS/20 mM Hepes. Probenicid was prepared fresh. Cells were loaded with dye prior to testing. Media was aspirated from cells and replaced with 20 μL Dye Loading Buffer. Cells were incubated for 30-60 minutes at 37° C.
For antagonist determination, cells were pre-incubated with sample followed by agonist challenge at the EC80 concentration. Intermediate dilution of sample stocks was performed to generate 3× sample in assay buffer. After dye loading, cells were removed from the incubator and 10 μL 3× sample was added. Cells were incubated for 30 minutes at room temperature in the dark to equilibrate plate temperature. Vehicle concentration was 1%. Compound antagonist activity was measured on a FLIPR Tetra (MDS). Calcium mobilization was monitored for 2 minutes and 10 μL EC80 agonist in HBSS/20 mM Hepes was added to the cells 5 seconds into the assay.
For antagonist and negative allosteric modulation mode assays, percentage inhibition is calculated using the following formula: % Inhibition=100%×(1−(mean RFU of test sample−mean RFU of vehicle control)/(mean RFU of EC80 control−mean RFU of vehicle control)).
When the calcium was released, the fluorescence of the dye was increased and the increase was measured in real-time.
FIGS. 1 to 6 show percent reacted (Y) versus concentration in μM (X). Compounds were tested in antagonist mode with the requested GPCR Biosensor Assay. For the antagonist assay, data was normalized to the maximal and minimal response observed in the presence of EC80 ligand and vehicle.

[1] = Brain pharmacokinetics and brain/plasma ratio in male CD-1 mice (1 mg/kg i.v.); assay type: in vivo; conditions: for Brain concentration / concentration at 5 min / concentration at 0.25 h / concentration at 0.5 h / concentration at 1 h / concentration at 2 h / concentration at 4 h / concentration at 6 h / concentration at 8 h: 1 mg/kg bolus i.v.; for concentration at 5 min / concentration at 0.25 h / concentration at 0.5 h / concentration at 1 h / concentration at 2 h / concentration at 4 h / concentration at 6 h / concentration at 8 h: intravenous, 1 mg/kg
Method: (§1) Male CD-1 mice were given either bolus 1 mg/kg i.v. or 3 mg/kg p.o. of the indicated compounds and plasma or brain concentrations were measured.
(§2) Where: • C0 concentration extrapolated to time zero following an i.v. dose • tmax time at which maximum concentration is observed • Cmax maximum observed concentration • Apparent t1/2 apparent terminal half-life • AUC0-tlast area under the concentration vs time curve from time 0 to the time of the last measurable concentration • AUC0-inf area under the concentration vs time curve from time 0 to infinity • CL systemic clearance • MRT0-inf mean residence time from time zero to infinity • Vss steady-state volume of distribution • F oral bioavailability=(Dose^iv*AUC^po)/(Dose^po*AUC^iv)*100

[2] = Plasma pharmacokinetics in male CD-1 mice (1 mg/kg i.v. or 3 mg/kg p.o.); conditions: CD-1, mouse, in vivo
Method: as §1, §2

[3] = male, CD-1, mouse, iv, brain, i.v. 1 mg/kg

In the case of `CCn1c(=S)c2c(nc(/C=C/c3ccc(OC)c(OC)c3)n2C)n(CC)c1=O` [Formula III, 8-[(E)-2-(3,4-dimethoxyphenyl)vinyl]-1,3-diethyl-7-methyl-6-thioxo-purin-2-one], the “Curve Bottom” value (ADORA2A; Antagonist format) is reported as 5.0984, the “Curve Top” value (ADORA2A; Antagonist format) is reported as 98 and the Hill (ADORA2A; Antagonist format) is reported as 1.3853. For the same compound, the Emax (ADORA2A; read-out: Max Response) was 97.1%, the Brain concentration ([1]; 5 min, individual animals 1-3) was 383 ng/g and 368 ng/g and the Brain concentration ([1]; 0.25 h, individual animals 1-3) was 454 ng/g and 394 ng/g. For the same compound, the Brain concentration ([1]; 0.5 h, individual animals 1-3) was 457 ng/g and 304 ng/g, the Brain concentration ([1]; 1 h, individual animals 1-3) was 348 ng/g and 354 ng/g and the Brain concentration ([1]; 2 h, individual animals 1-3) was 239 ng/g and 224 ng/g. For the same compound, the Brain concentration ([1]; 4 h, individual animals 1-3) was 165 ng/g and 113 ng/g, the Brain concentration ([1]; 6 h, individual animals 1-3) was 94.1 ng/g and 81.5 ng/g and the Brain concentration ([1]; 8 h, individual animals 1-3) was 63.9 ng/g and 38.8 ng/g. It also gave an AUC0-tlast ([1]; brain, i.v. 1 mg/kg) of 1315 ng·h/g, an AUC(0-inf) ([1]; brain, i.v. 1 mg/kg) of 1517 ng·h/g and a concentration at 5 min ([1]; male, CD-1, mouse, brain, 5 min, individual animals 1-3, read-out: Brain concentration) of 490 ng/g. The concentration at 5 min ([1]; male, CD-1, mouse, brain, 5 min, read-out: Brain concentration, Mean) was 414 ng/g, the concentration at 0.25 h ([1]; male, CD-1, mouse, brain, 0.25 h, individual animals 1-3, read-out: Brain concentration) was 379 ng/g and the concentration at 0.25 h ([1]; male, CD-1, mouse, brain, 0.25 h, read-out: Brain concentration, Mean) was 409 ng/g. For the same compound, the concentration at 0.5 h ([1]; male, CD-1, mouse, brain, 0.5 h, individual animals 1-3, read-out: Brain concentration) was 379 ng/g, the concentration at 0.5 h ([1]; male, CD-1, mouse, brain, 0.5 h, read-out: Brain concentration, Mean) was 380 ng/g and the concentration at 1 h ([1]; male, CD-1, mouse, brain, 1 h, individual animals 1-3, read-out: Brain concentration) was 262 ng/g. The concentration at 1 h ([1]; male, CD-1, mouse, brain, 1 h, read-out: Brain concentration, Mean) was 321 ng/g, the concentration at 2 h ([1]; male, CD-1, mouse, brain, 2 h, individual animals 1-3, read-out: Brain concentration) was 212 ng/g and the concentration at 2 h ([1]; male, CD-1, mouse, brain, 2 h, read-out: Brain concentration, Mean) was 225 ng/g. For the same compound, the concentration at 4 h ([1]; male, CD-1, mouse, brain, 4 h, individual animals 1-3, read-out: Brain concentration) was 96.9 ng/g, the concentration at 4 h ([1]; male, CD-1, mouse, brain, 4 h, read-out: Brain concentration, Mean) was 125 ng/g and the concentration at 6 h ([1]; male, CD-1, mouse, brain, 6 h, individual animals 1-3, read-out: Brain concentration) was 90.1 ng/g. The concentration at 6 h ([1]; male, CD-1, mouse, brain, 6 h, read-out: Brain concentration, Mean) was 88.6 ng/g, the concentration at 8 h ([1]; male, CD-1, mouse, brain, 8 h, individual animals 1-3, read-out: Brain concentration) was 45.5 ng/g and the concentration at 8 h ([1]; male, CD-1, mouse, brain, 8 h, read-out: Brain concentration, Mean) was 49.4 ng/g. It also gave a Cmax [1, 3] of 414 ng/g, a Tmax [1, 3] of 5 min and a half-life ([1]; male, CD-1, mouse, iv, brain, i.v. 1 mg/kg, read-out: Apparent t1/2 (converted)) of 2.83 h. It also gave an MRT inf ([1]; male, CD-1, mouse, iv, brain, i.v. 1 mg/kg, read-out: MRT0-inf) of 3.94 h, a bioavailability [2] of 21.5% and an AUC(0-inf) ([2]; iv, 1 mg/kg) of 1580 ng·h/mL. For the same compound, the AUC(0-t) ([2]; iv, 1 mg/kg) was 1280 ng·h/mL, the Cmax ([2]; iv, 1 mg/kg) was 360 ng/mL and the MRT inf ([2]; iv, 1 mg/kg) was 4.73 h. It also gave a Tmax ([2]; iv, 1 mg/kg) of 0.25 h, a Vd ([2]; iv, 1 mg/kg) of 3 L/kg and a clearance ([2]; iv, 1 mg/kg) of 10.6 mL/min/kg. For the same compound, the half-life ([2]; iv, 1 mg/kg) was 3.39 h, the AUC(0-inf) ([2]; po, 3 mg/kg) was 1020 ng·h/mL and the AUC(0-t) ([2]; po, 3 mg/kg) was 988 ng·h/mL. The Cmax ([2]; po, 3 mg/kg) was 124 ng/mL, the MRT inf ([2]; po, 3 mg/kg) was 7.55 h and the Tmax ([2]; po, 3 mg/kg) was 1 h. For the same compound, the half-life ([2]; po, 3 mg/kg) was 4.44 h.
